# In US20070282011A1, “Biodegradable water soluble polymers” (MediVas, LLC, priority 2006, published 2007):
# Tests used:
# endothelial cells = test: In vitro cell culture cytotoxicity, percent cell viability by ATP assay (ViaLight Plus); details: 0.1-40 ng/ml Taxol equivalent
# Method: (§1) In vitro assays were conducted using endothelial cells and smooth muscle cells.
# (§2) The cells were then fed again with fresh medium (Endothelial Growth Media, EGM-2 BulletKit, Cambrex) and increasing doses of the test substrates were introduced at the following concentrations: 0.1, 0.5, 1, 2, 8 and 40 ng/ml in triplicate. […] The percent cell viability was then determined at 24, 48 and 72 hours following exposure to the test substances, using a standard ATP assay (ViaLight Plus assay kit, Cambrex).
# in vitro = details: endothelial cells
# Method: as §1, §2
# [1] = ionizable group of side chain R3 of natural amino acid residue; tabulated as a guide; cited from earlier work
compound,measurement,setting,value
"CC(=O)O[C@H]1C(=O)[C@@]2(C)[C@H]([C@H](OC(=O)c3ccccc3)[C@]3(O)C[C@H](OC(=O)[C@H](OC(=O)CCC(=O)O)[C@@H](NC(=O)c4ccccc4)c4ccccc4)C(C)=C1C3(C)C)[C@]1(OC(C)=O)CO[C@@H]1C[C@@H]2O [Taxol-SA, Taxol-2′-hemisuccinate]",cytotoxicity to the cells (in words),endothelial cells,does not appear to change the cytotoxicity
"CC(=O)O[C@H]1C(=O)[C@@]2(C)[C@H]([C@H](OC(=O)c3ccccc3)[C@]3(O)C[C@H](OC(=O)[C@H](O)[C@@H](NC(=O)c4ccccc4)c4ccccc4)C(C)=C1C3(C)C)[C@]1(OC(C)=O)CO[C@@H]1C[C@@H]2O [Taxol, 5β,20-Epoxy-1,2α,4,7β,10β,13α-hexahydroxytax-11-en-9-one 4,10-diacetate 2-benzoate 13-ester with (2R,3S)—N-benzoyl-3-phenylisoserine]","viability at 72 h, 0.1 ng/ml",in vitro,126%
same,"viability at 72 h, 0.5 ng/ml",in vitro,123%
same,"viability at 72 h, 1 ng/ml",in vitro,114%
same,"viability at 72 h, 2 ng/ml",in vitro,90%
same,"viability at 72 h, 8 ng/ml",in vitro,38.6%
same,"viability at 72 h, 40 ng/ml",in vitro,15.5%
N[C@@H](Cc1ccc(O)cc1)C(=O)O [Tyrosine],pK,[1],10.0
NCCCC[C@H](N)C(=O)O [Lysine],pK,[1],10.5
N[C@@H](CCC(=O)O)C(=O)O [Glutamic acid],pK,[1],4.07
N[C@@H](Cc1c[nH]cn1)C(=O)O [Histidine],pK,[1],6.10
